Data: article PMC4890880 (ACS infectious diseases, 2016)

system: Plasmodium berghei (Pb-Luc) exoerythrocytic-stage parasites; experiment: microbe, parasite or virus in culture; settings: read-out: Inhibition% @ 50 uM rep1

| SMILES | inhibition at 50 µM |
| --- | --- |
| CCOc1cc(Cl)c(C(C)NC(=O)c2ccccc2)cc1OCC (centres unmarked) [MMV665800] | 97% |
| CCOC(=O)c1cn(CC)c2cc(N3CCCCC3)c(F)cc2c1=O [MMV665827] | 102% |
| O=C(Nc1ccc(-c2nc3ccccc3[nH]2)cc1)c1ccc(Cl)c(Cl)c1 [MMV665840] | -57% |
| Oc1c2c(nc3ccccc13)CCCC2 [MMV665843] | 98% |
| COc1cccc(NC(=O)[C@H](C(C)C)n2c(=O)[nH]c3ccccc3c2=O)c1 [MMV665878] | 102% |
| O=C(c1ccccc1F)N(Cc1ccc(Cl)cc1)c1ccccn1 [MMV665899] | 100% |
| COCCn1c(C)nc2ccccc2c1=O [MMV665904] | 100% |

same assay, conditions: read-out: Inhibition% @ 50 uM rep2

| SMILES | inhibition at 50 µM |
| --- | --- |
| CCOc1cc(Cl)c(C(C)NC(=O)c2ccccc2)cc1OCC (centres unmarked) [MMV665800] | 93% |
| CCOC(=O)c1cn(CC)c2cc(N3CCCCC3)c(F)cc2c1=O [MMV665827] | 105% |
| O=C(Nc1ccc(-c2nc3ccccc3[nH]2)cc1)c1ccc(Cl)c(Cl)c1 [MMV665840] | -66% |
| Oc1c2c(nc3ccccc13)CCCC2 [MMV665843] | 100% |
| COc1cccc(NC(=O)[C@H](C(C)C)n2c(=O)[nH]c3ccccc3c2=O)c1 [MMV665878] | 102% |
| O=C(c1ccccc1F)N(Cc1ccc(Cl)cc1)c1ccccn1 [MMV665899] | 98% |
| COCCn1c(C)nc2ccccc2c1=O [MMV665904] | 102% |

same assay, conditions: read-out: PbLuc IC50, dose response, 1/3 dilutions, max conc. 10 or 50 uM, unit inferred

| SMILES | IC50 |
| --- | --- |
| CCOC(=O)c1cn(CC)c2cc(N3CCCCC3)c(F)cc2c1=O [MMV665827] | 0.0743 µM |
| Oc1c2c(nc3ccccc13)CCCC2 [MMV665843] | 0.894 µM |
| COc1cccc(NC(=O)[C@H](C(C)C)n2c(=O)[nH]c3ccccc3c2=O)c1 [MMV665878] | 13.2 µM |
| O=C(c1ccccc1F)N(Cc1ccc(Cl)cc1)c1ccccn1 [MMV665899] | 9.54 µM |
| COCCn1c(C)nc2ccccc2c1=O [MMV665904] | 1.99 µM |

same assay, conditions: read-out: PbLuc IC50, dose response, unit inferred

| SMILES | IC50 |
| --- | --- |
| CCOc1cc(Cl)c(C(C)NC(=O)c2ccccc2)cc1OCC (centres unmarked) [MMV665800] | > 50 µM |
| O=C(Nc1ccc(-c2nc3ccccc3[nH]2)cc1)c1ccc(Cl)c(Cl)c1 [MMV665840] | > 10 µM |

same assay, conditions: read-out: PbLuc max inhibition (%) @ 10 uM

| SMILES | inhibition at 10 µM |
| --- | --- |
| CCOC(=O)c1cn(CC)c2cc(N3CCCCC3)c(F)cc2c1=O [MMV665827] | 99% |
| O=C(Nc1ccc(-c2nc3ccccc3[nH]2)cc1)c1ccc(Cl)c(Cl)c1 [MMV665840] | 15% |
| COCCn1c(C)nc2ccccc2c1=O [MMV665904] | 90% |

same assay, conditions: read-out: PbLuc max inhibition (%) @ 50 uM

| SMILES | inhibition at 50 µM |
| --- | --- |
| CCOc1cc(Cl)c(C(C)NC(=O)c2ccccc2)cc1OCC (centres unmarked) [MMV665800] | 89% |
| Oc1c2c(nc3ccccc13)CCCC2 [MMV665843] | 101% |
| COc1cccc(NC(=O)[C@H](C(C)C)n2c(=O)[nH]c3ccccc3c2=O)c1 [MMV665878] | 101% |
| O=C(c1ccccc1F)N(Cc1ccc(Cl)cc1)c1ccccn1 [MMV665899] | 94% |

target: QuantiLum Recombinant Luciferase (Photinus pyralis, UniProt P08659); experiment: Bioluminescence quantification of compound luciferase inhibition; settings: not given
Sequence (P08659 whole entry): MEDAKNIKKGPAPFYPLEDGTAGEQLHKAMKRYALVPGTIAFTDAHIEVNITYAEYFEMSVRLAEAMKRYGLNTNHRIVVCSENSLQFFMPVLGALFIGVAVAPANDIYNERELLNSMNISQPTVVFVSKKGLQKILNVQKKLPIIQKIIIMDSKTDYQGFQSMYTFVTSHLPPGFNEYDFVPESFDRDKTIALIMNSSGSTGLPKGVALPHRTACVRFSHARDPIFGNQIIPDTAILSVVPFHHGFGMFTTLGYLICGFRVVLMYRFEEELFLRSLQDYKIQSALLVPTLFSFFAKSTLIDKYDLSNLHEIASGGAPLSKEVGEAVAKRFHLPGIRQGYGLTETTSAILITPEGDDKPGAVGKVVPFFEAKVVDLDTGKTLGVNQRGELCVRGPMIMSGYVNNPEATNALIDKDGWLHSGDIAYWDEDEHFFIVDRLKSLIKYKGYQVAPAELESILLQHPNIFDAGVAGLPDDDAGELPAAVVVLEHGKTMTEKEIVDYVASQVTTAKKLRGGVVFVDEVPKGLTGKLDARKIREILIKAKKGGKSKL

| SMILES | IC50 |
| --- | --- |
| CCOc1cc(Cl)c(C(C)NC(=O)c2ccccc2)cc1OCC (centres unmarked) [MMV665800] | > 50 µM |
| CCOC(=O)c1cn(CC)c2cc(N3CCCCC3)c(F)cc2c1=O [MMV665827] | > 20 µM |
| O=C(Nc1ccc(-c2nc3ccccc3[nH]2)cc1)c1ccc(Cl)c(Cl)c1 [MMV665840] | > 20 µM |
| Oc1c2c(nc3ccccc13)CCCC2 [MMV665843] | > 50 µM |
| COc1cccc(NC(=O)[C@H](C(C)C)n2c(=O)[nH]c3ccccc3c2=O)c1 [MMV665878] | > 50 µM |
| O=C(c1ccccc1F)N(Cc1ccc(Cl)cc1)c1ccccn1 [MMV665899] | > 50 µM |
| COCCn1c(C)nc2ccccc2c1=O [MMV665904] | > 20 µM |

same assay, conditions: read-out: LucInhib max inhibition

| SMILES | Emax |
| --- | --- |
| CCOc1cc(Cl)c(C(C)NC(=O)c2ccccc2)cc1OCC (centres unmarked) [MMV665800] | 41% |
| CCOC(=O)c1cn(CC)c2cc(N3CCCCC3)c(F)cc2c1=O [MMV665827] | 24% |
| O=C(Nc1ccc(-c2nc3ccccc3[nH]2)cc1)c1ccc(Cl)c(Cl)c1 [MMV665840] | 22% |
| Oc1c2c(nc3ccccc13)CCCC2 [MMV665843] | 18% |
| COc1cccc(NC(=O)[C@H](C(C)C)n2c(=O)[nH]c3ccccc3c2=O)c1 [MMV665878] | 28% |
| O=C(c1ccccc1F)N(Cc1ccc(Cl)cc1)c1ccccn1 [MMV665899] | 40% |
| COCCn1c(C)nc2ccccc2c1=O [MMV665904] | 13% |

system: HepG2-A16-CD81EGFP cells; experiment: cells; settings: Homo sapiens, HepG2, read-out: HepG2 Tox% @ 50 uM rep1

| SMILES | cytotoxicity at 50 µM |
| --- | --- |
| CCOc1cc(Cl)c(C(C)NC(=O)c2ccccc2)cc1OCC (centres unmarked) [MMV665800] | 49% |
| CCOC(=O)c1cn(CC)c2cc(N3CCCCC3)c(F)cc2c1=O [MMV665827] | -12% |
| O=C(Nc1ccc(-c2nc3ccccc3[nH]2)cc1)c1ccc(Cl)c(Cl)c1 [MMV665840] | -7% |
| Oc1c2c(nc3ccccc13)CCCC2 [MMV665843] | -7.59% |
| COc1cccc(NC(=O)[C@H](C(C)C)n2c(=O)[nH]c3ccccc3c2=O)c1 [MMV665878] | 12% |
| O=C(c1ccccc1F)N(Cc1ccc(Cl)cc1)c1ccccn1 [MMV665899] | 20% |
| COCCn1c(C)nc2ccccc2c1=O [MMV665904] | 1.26% |

same assay, conditions: Homo sapiens, HepG2, read-out: HepG2 Tox% @ 50 uM rep2

| SMILES | cytotoxicity at 50 µM |
| --- | --- |
| CCOc1cc(Cl)c(C(C)NC(=O)c2ccccc2)cc1OCC (centres unmarked) [MMV665800] | 21% |
| CCOC(=O)c1cn(CC)c2cc(N3CCCCC3)c(F)cc2c1=O [MMV665827] | -7% |
| COc1cccc(NC(=O)[C@H](C(C)C)n2c(=O)[nH]c3ccccc3c2=O)c1 [MMV665878] | 4.53% |
| O=C(c1ccccc1F)N(Cc1ccc(Cl)cc1)c1ccccn1 [MMV665899] | 28% |
| COCCn1c(C)nc2ccccc2c1=O [MMV665904] | -3% |

same assay, conditions: Homo sapiens, HepG2, read-out: Tox IC50

| SMILES | IC50 |
| --- | --- |
| CCOc1cc(Cl)c(C(C)NC(=O)c2ccccc2)cc1OCC (centres unmarked) [MMV665800] | > 50 µM |
| CCOC(=O)c1cn(CC)c2cc(N3CCCCC3)c(F)cc2c1=O [MMV665827] | > 10 µM |
| O=C(Nc1ccc(-c2nc3ccccc3[nH]2)cc1)c1ccc(Cl)c(Cl)c1 [MMV665840] | > 10 µM |
| Oc1c2c(nc3ccccc13)CCCC2 [MMV665843] | > 50 µM |
| COc1cccc(NC(=O)[C@H](C(C)C)n2c(=O)[nH]c3ccccc3c2=O)c1 [MMV665878] | > 50 µM |
| O=C(c1ccccc1F)N(Cc1ccc(Cl)cc1)c1ccccn1 [MMV665899] | > 50 µM |
| COCCn1c(C)nc2ccccc2c1=O [MMV665904] | > 10 µM |

same assay, conditions: Homo sapiens, HepG2, read-out: Tox max inhibition (%) @ 10 uM

| SMILES | inhibition at 10 µM |
| --- | --- |
| CCOC(=O)c1cn(CC)c2cc(N3CCCCC3)c(F)cc2c1=O [MMV665827] | 15% |
| O=C(Nc1ccc(-c2nc3ccccc3[nH]2)cc1)c1ccc(Cl)c(Cl)c1 [MMV665840] | 31% |
| COCCn1c(C)nc2ccccc2c1=O [MMV665904] | 22% |

same assay, conditions: Homo sapiens, HepG2, read-out: Tox max inhibition (%) @ 50 uM

| SMILES | inhibition at 50 µM |
| --- | --- |
| CCOc1cc(Cl)c(C(C)NC(=O)c2ccccc2)cc1OCC (centres unmarked) [MMV665800] | 22% |
| Oc1c2c(nc3ccccc13)CCCC2 [MMV665843] | 8% |
| COc1cccc(NC(=O)[C@H](C(C)C)n2c(=O)[nH]c3ccccc3c2=O)c1 [MMV665878] | 13% |
| O=C(c1ccccc1F)N(Cc1ccc(Cl)cc1)c1ccccn1 [MMV665899] | 6% |
